Measured values taken from US12083096B2, “Composition containing artesunate” (priority 2016, dated 2024).

Columns and labels:
[1] = time to dissolve artesunate powder in aqueous base solution to a clear solution; assay type: physicochemical; details: 10 mg of artesunate with 5% sodium bicarbonate solution
Method: The formulation was prepared prior to use by: providing artesunate; providing a solution comprising an organic base; and adding the solution to artesunate to provide the formulation. For example, the injectable formulation of the present disclosure was prepared by mixing artesunate with an aqueous solution containing a base described herein. Without wishing to be bound by theory, artesunate becomes negatively charged and dissolved. The formulation is freshly prepared immediately before use to minimize instability. In some embodiments, the injectable formulation is prepared by adding a solution of the disclosed bases to artesunate powder. The solution is about 5% glucose, normal saline, or about 5% glucose saline solution. Then the mixture is mixed gently to provide a clear injectable solution.
The formulation of the present disclosure is very convenient to prepare.

[2] = in vivo; cited from earlier work
[3] = cited from earlier work
[4] = cited from earlier work; remark: listed apart in the source

- time needed to dissolve [1]: five to seven
SMILES: C[C@H]1[C@H](OC(=O)CCC(=O)O)O[C@@H]2O[C@@]3(C)CC[C@H]4[C@H](C)CC[C@@H]1[C@@]24OO3 [artesunate]
- plasma half-life [2]: about 20 minutes
- solubility in organic solvents ([3]; organic solvents, such as acetone and methanol): soluble
- solubility in water ([3]; water): slightly soluble
- stability under basic and acidic conditions [4]: unstable
